Source: US20130053381A1, “2,4-DIOXO-1,4-DIHYDRO-2H-QUINAZOLIN-3-YL-SULFONAMIDE DERIVATIVES” (NOVARTIS AG, priority 2010, published 2013)

These compounds were tested on OF1 mice (assay: Maximal electroshock test (MES Test)). Conditions: Mus musculus, po; 50 mg/kg, p.o., pre-treatment time −1 h; read-out: %-Protection.
Type: in vivo
Procedure: Compounds of the invention were tested in OF1 mice using the maximal electroshock test (MES Test) described in detail by Schmutz et al., Naunyn-Schmiedeberg's Arch Pharmacol 1990, 342, 61-66. Briefly, generalized tonic-clonic convulsions of the hind extremities were induced by passing electrical current through temporal electrodes (50 Hz, 18 mA, 0.2s). […] 30 mg/kg carbamazepine was used as a positive control; mice were classified as protected by a compound If the duration of the seizure lasted only 3 second or less. Five mice were used for each treatment condition and the percentage of protected mice was used as readout (i.e. a compound could give 0%, 20%, 40%, 60%, 80% or 100% protection). Usually, compounds of the invention or their parents were given at a dose of 50 mg/kg, p.o., 1 hour prior to induction of convulsions (i.e. “pre-treatment time −1 h”).
ED50 values (ED: effective dose) were calculated using GraphPad Prism, v4.02. after shock administration, mouse blood was collected for determination of compounds' blood exposure.
`CC(C)c1cc2[nH]c(=O)n(N(C(=O)C(C)(C)C)S(C)(=O)=O)c(=O)c2cc1-c1ccnn1C` [Example 3.23, N-(2,2-Dimethyl-propionyl)-N-[7-isopropyl-6-(2-methyl-2H-pyrazol-3-yl)-2,4-dioxo-1,4-dihydro-2H-quinazolin-3-yl]-methanesulfonamide] showed a responders at 50 mg/kg of 20%.
Work on `CC(=O)N(n1c(=O)c2cc(-c3ccnn3C)c(C(C)C)cc2n(C(C)=O)c1=O)S(C)(=O)=O` [Example 3.24, N-Acetyl-N-[1-acetyl-7-isopropyl-6-(2-methyl-2H-pyrazol-3-yl)-2,4-dioxo-1,4-dihydro-2H-quinazolin-3-yl]-methanesulfonamide] yielded a responders at 50 mg/kg of 100%.
`CCC(=O)N(n1c(=O)c2cc(-c3ccnn3C)c(C(C)C)cc2n(C(=O)CC)c1=O)S(C)(=O)=O` [Example 3.25, N-[7-Isopropyl-6-(2-methyl-2H-pyrazol-3-yl)-2,4-dioxo-1-propionyl-1,4-dihydro-2H-quinazolin-3-yl]-N-propionyl-methanesulfonamide] showed a responders at 50 mg/kg of 100%.
`CCCC(=O)N(n1c(=O)c2cc(-c3ccnn3C)c(C(C)C)cc2n(C(=O)CCC)c1=O)S(C)(=O)=O` [Example 3.26, N-Butyryl-N-[1-butyryl-7-isopropyl-6-(2-methyl-2H-pyrazol-3-yl)-2,4-dioxo-1,4-dihydro-2H-quinazolin-3-yl]-methanesulfonamide] was tested, and the responders at 50 mg/kg was 80%.
`CC(=O)n1c(=O)n(N(C(=O)OCc2ccccc2)S(C)(=O)=O)c(=O)c2cc(-c3ccnn3C)c(C(C)C)cc21` [Example 3.27, [1-Acetyl-7-isopropyl-6-(2-methyl-2H-pyrazol-3-yl)-2,4-dioxo-1,4-dihydro-2H-quinazolin-3-yl]-methanesulfonyl-carbamic acid benzyl ester] was tested, and the responders at 50 mg/kg was 100%.
`COCCOCCOCC(=O)N(n1c(=O)[nH]c2cc(C(C)C)c(-c3ccnn3C)cc2c1=O)S(C)(=O)=O` [Example 3.28, N-[7-Isopropyl-6-(2-methyl-2H-pyrazol-3-yl)-2,4-dioxo-1,4-dihydro-2H-quinazolin-3-yl]-N-[2-[2-(2-methoxy-ethoxy)-ethoxy]-acetyl]-methanesulfonamide] gave a responders at 50 mg/kg of 100%.
Compound `CC(C)c1cc2[nH]c(=O)n(N(C(=O)COCc3ccccc3)S(C)(=O)=O)c(=O)c2cc1-c1ccnn1C` [Example 3.29, N-(2-Benzyloxy-acetyl)-N-[7-isopropyl-6-(2-methyl-2H-pyrazol-3-yl)-2,4-dioxo-1,4-dihydro-2H-quinazolin-3-yl]-methanesulfonamide] has a responders at 50 mg/kg of 100%.
With `CC(C)c1cc2[nH]c(=O)n(N(C(=O)CCCOCc3ccccc3)S(C)(=O)=O)c(=O)c2cc1-c1ccnn1C` [Example 3.30, N-(4-Benzyloxy-butyryl)-N-[7-isopropyl-6-(2-methyl-2H-pyrazol-3-yl)-2,4-dioxo-1,4-dihydro-2H-quinazolin-3-yl]-methanesulfonamide] the responders at 50 mg/kg was 100%.
In the case of `CC(C)c1cc2[nH]c(=O)n(N(C(=O)CN3CCOCC3)S(C)(=O)=O)c(=O)c2cc1-c1ccnn1C` [Example 3.31, N-[7-Isopropyl-6-(2-methyl-2H-pyrazol-3-yl)-2,4-dioxo-1,4-dihydro-2H-quinazolin-3-yl]-N-(2-morpholin-4-yl-acetyl)-methanesulfonamide], the responders at 50 mg/kg is reported as 100%.
Work on `COC(=O)N(n1c(=O)c2cc(-c3ccnn3C)c(C(C)C)cc2n(C(=O)OC)c1=O)S(C)(=O)=O` [Example 3.32, 7-Isopropyl-3-(methoxycarbonyl-methanesulfonyl-amino)-6-(2-methyl-2H-pyrazol-3-yl)-2,4-dioxo-3,4-dihydro-2H-quinazoline-1-carboxylic acid methyl ester] yielded a responders at 50 mg/kg of 80%.
With `CCOC(=O)N(n1c(=O)c2cc(-c3ccnn3C)c(C(C)C)cc2n(C(=O)OCC)c1=O)S(C)(=O)=O` [Example 3.33] the responders at 50 mg/kg was 80%.
In the case of `CCCOC(=O)N(n1c(=O)c2cc(-c3ccnn3C)c(C(C)C)cc2n(C(=O)OCCC)c1=O)S(C)(=O)=O` [Example 3.34, 7-Isopropyl-3-(methanesulfonyl-propoxycarbonyl-amino)-6-(2-methyl-2H-pyrazol-3-yl)-2,4-dioxo-3,4-dihydro-2H-quinazoline-1-carboxylic acid propyl ester], the responders at 50 mg/kg is reported as 80%.
Compound `CCCCOC(=O)N(n1c(=O)c2cc(-c3ccnn3C)c(C(C)C)cc2n(C(=O)OCCCC)c1=O)S(C)(=O)=O` [Example 3.35, 3-(Butoxycarbonyl-methanesulfonyl-amino)-7-isopropyl-6-(2-methyl-2H-pyrazol-3-yl)-2,4-dioxo-3,4-dihydro-2H-quinazoline-1-carboxylic acid butyl ester] has a responders at 50 mg/kg of 80%.
For `COC(=O)n1c(=O)n(N(C(C)=O)S(C)(=O)=O)c(=O)c2cc(-c3ccnn3C)c(C(C)C)cc21` [Example 3.36, 3-(Acetyl-methanesulfonyl-amino)-7-isopropyl-6-(2-methyl-2H-pyrazol-3-yl)-2,4-dioxo-3,4-dihydro-2H-quinazoline-1-carboxylic acid methyl ester], the responders at 50 mg/kg was 100%.
`CC(C)c1cc2[nH]c(=O)n(N(C(=O)CCCN3CCOCC3)S(C)(=O)=O)c(=O)c2cc1-c1ccnn1C` [Example 3.37, N-[7-Isopropyl-6-(2-methyl-2H-pyrazol-3-yl)-2,4-dioxo-1,4-dihydro-2H-quinazolin-3-yl]-N-(4-morpholin-4-yl-butyryl)-methanesulfonamide] showed a responders at 50 mg/kg of 100%.
`CC(C)c1cc2[nH]c(=O)n(N(C(=O)CCN3CCOCC3)S(C)(=O)=O)c(=O)c2cc1-c1ccnn1C` [Example 3.38, N-[7-Isopropyl-6-(2-methyl-2H-pyrazol-3-yl)-2,4-dioxo-1,4-dihydro-2H-quinazolin-3-yl]-N-(3-morpholin-4-yl-propionyl)-methanesulfonamide] was tested, and the responders at 50 mg/kg was 80%.
Compound `CCOC(=O)CCC(=O)N(n1c(=O)[nH]c2cc(C(F)(F)F)c(-n3ccnc3)cc2c1=O)S(C)(=O)=O` [Example 4.01, 4-[(6-Imidazol-1-yl-2,4-dioxo-7-trifluoromethyl-1,4-dihydro-2H-quinazolin-3-yl)-methanesulfonyl-amino]-4-oxo-butyric acid ethyl ester] has a responders at 50 mg/kg of 20%.
`CCCCC(=O)N(n1c(=O)[nH]c2cc(C(F)(F)F)c(-n3ccnc3)cc2c1=O)S(C)(=O)=O` [Example 4.02, N-(6-Imidazol-1-yl-2,4-dioxo-7-trifluoromethyl-1,4-dihydro-2H-quinazolin-3-yl)-N-pentanoyl-methanesulfonamide] was tested, and the responders at 50 mg/kg was 100%.
In the case of `CC(=O)N(n1c(=O)[nH]c2cc(C(F)(F)F)c(-n3ccnc3)cc2c1=O)S(C)(=O)=O` [Example 4.03, N-Acetyl-N-(6-imidazol-1-yl-2,4-dioxo-7-trifluoromethyl-1,4-dihydro-2H-quinazolin-3-yl)-methanesulfonamide], the responders at 50 mg/kg is reported as 40%.
For `CC(C)C(=O)N(n1c(=O)[nH]c2cc(C(F)(F)F)c(-n3ccnc3)cc2c1=O)S(C)(=O)=O` [Example 4.05, N-(6-Imidazol-1-yl-2,4-dioxo-7-trifluoromethyl-1,4-dihydro-2H-quinazolin-3-yl)-N-isobutyryl-methanesulfonamide], the responders at 50 mg/kg was 80%.
Compound `CC(C)CC(=O)N(n1c(=O)[nH]c2cc(C(F)(F)F)c(-n3ccnc3)cc2c1=O)S(C)(=O)=O` [Example 4.06, N-(6-Imidazol-1-yl-2,4-dioxo-7-trifluoromethyl-1,4-dihydro-2H-quinazolin-3-yl)-N-(3-methyl-butyryl)-methanesulfonamide] has a responders at 50 mg/kg of 20%.
For `CS(=O)(=O)N(C(=O)C1CCCC1)n1c(=O)[nH]c2cc(C(F)(F)F)c(-n3ccnc3)cc2c1=O` [Example 4.07], the responders at 50 mg/kg was 40%.
`CCCCCC(=O)N(n1c(=O)[nH]c2cc(C(F)(F)F)c(-n3ccnc3)cc2c1=O)S(C)(=O)=O` [Example 4.08, N-Hexanoyl-N-(6-imidazol-1-yl-2,4-dioxo-7-trifluoromethyl-1,4-dihydro-2H-quinazolin-3-yl)-methanesulfonamide] gave a responders at 50 mg/kg of 20%.
Work on `CCCC(=O)N(n1c(=O)[nH]c2cc(C(F)(F)F)c(-n3ccnc3)cc2c1=O)S(C)(=O)=O` [Example 4.09, N-Butyryl-N-(6-imidazol-1-yl-2,4-dioxo-7-trifluoromethyl-1,4-dihydro-2H-quinazolin-3-yl)-methanesulfonamide] yielded a responders at 50 mg/kg of 40%.
`CC(=O)N(n1c(=O)[nH]c2cc(C(F)(F)F)c(-c3ccnn3C(C)C)cc2c1=O)S(C)(=O)=O` [Example 5.01, N-Acetyl-N-[6-(2-isopropyl-2H-pyrazol-3-yl)-2,4-dioxo-7-trifluoromethyl-1,4-dihydro-2H-quinazolin-3-yl]-methanesulfonamide] showed a responders at 50 mg/kg of 60%.
With `CCC(=O)N(n1c(=O)[nH]c2cc(C(F)(F)F)c(-c3ccnn3C(C)C)cc2c1=O)S(C)(=O)=O` [Example 5.02, N-[6-(2-Isopropyl-2H-pyrazol-3-yl)-2,4-dioxo-7-trifluoromethyl-1,4-dihydro-2H-quinazolin-3-yl]-N-propionyl-methanesulfonamide] the responders at 50 mg/kg was 20%.

Same assay, conditions: Mus musculus, po; 50 mg/kg, p.o., pre-treatment time −2 h (footnote a); read-out: %-Protection
`CCC(=O)N(n1c(=O)[nH]c2cc(C(F)(F)F)c(-n3ccnc3)cc2c1=O)S(C)(=O)=O` [Example 4.04, N-(6-Imidazol-1-yl-2,4-dioxo-7-trifluoromethyl-1,4-dihydro-2H-quinazolin-3-yl)-N-propionyl-methanesulfonamide] showed a responders at 50 mg/kg of 40%.

Same assay, conditions: Mus musculus, po; Table 5; 50 mg/kg, p.o., pre-treatment time −0.25 h; read-out: %-Protection
In the case of `CC(=O)N(n1c(=O)c2cc(-c3ccnn3C)c(C(C)C)cc2n(C(C)=O)c1=O)S(C)(=O)=O` [Example 3.24, N-Acetyl-N-[1-acetyl-7-isopropyl-6-(2-methyl-2H-pyrazol-3-yl)-2,4-dioxo-1,4-dihydro-2H-quinazolin-3-yl]-methanesulfonamide], the responders at 50 mg/kg is reported as 100%.

Same assay, conditions: Mus musculus, po; Table 5; 50 mg/kg, p.o., pre-treatment time −0.5 h; read-out: %-Protection
`CC(=O)N(n1c(=O)c2cc(-c3ccnn3C)c(C(C)C)cc2n(C(C)=O)c1=O)S(C)(=O)=O` [Example 3.24, N-Acetyl-N-[1-acetyl-7-isopropyl-6-(2-methyl-2H-pyrazol-3-yl)-2,4-dioxo-1,4-dihydro-2H-quinazolin-3-yl]-methanesulfonamide] was tested, and the responders at 50 mg/kg was 100%.

Same assay, conditions: Table 5; 50 mg/kg, p.o., pre-treatment time −1 h
In the case of `CC(=O)N(n1c(=O)c2cc(-c3ccnn3C)c(C(C)C)cc2n(C(C)=O)c1=O)S(C)(=O)=O` [Example 3.24, N-Acetyl-N-[1-acetyl-7-isopropyl-6-(2-methyl-2H-pyrazol-3-yl)-2,4-dioxo-1,4-dihydro-2H-quinazolin-3-yl]-methanesulfonamide], the “%-Protection” value is reported as 100%.

Same assay, conditions: single 50 mg/kg p.o. dose; 30 min after treatment, MES Test
In the case of `CCCCC(=O)N(n1c(=O)[nH]c2cc(C(F)(F)F)c(-n3ccnc3)cc2c1=O)S(C)(=O)=O` [Example 4.02, N-(6-Imidazol-1-yl-2,4-dioxo-7-trifluoromethyl-1,4-dihydro-2H-quinazolin-3-yl)-N-pentanoyl-methanesulfonamide], the “%-seizure protection” value is reported as 100%.
